Source: PubChem BioAssay AID248 (DTP/NCI, 2004)
Toxic doses and inconclusive results are not listed. Cut-off read from the data, not from the text of the source: active = T/C of 150% or more; inactive = T/C below 125%.

System: L1210 leukemia ip in BDF1 mice, survival T/C
Test: NCI In Vivo Anticancer Drug Screen. Data for tumor model L1210 Leukemia (intraperitoneal) in B6D2F1 (BDF1) mice
Conditions: endpoint: mean survival time, higher = longer survival
Outline: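 Mice bearing the transplanted tumor received compound or vehicle. Survival of the treated group was divided by that of the vehicle-treated control group to give the ratio.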

[1] = dose: 100.0 mg/kg/injection, schedule: Q04DX003 (ip), vehicle: saline with Tween-80
[2] = dose: 200.0 mg/kg/injection, schedule: Q04DX003 (ip), vehicle: saline with Tween-80
[3] = dose: 100.0 mg/kg/injection, schedule: Q04DX003 (ip), vehicle: Klucel (hydroxypropylcellulose) (HPC)
[4] = dose: 400.0 mg/kg/injection, schedule: Q04DX003 (ip), vehicle: saline with Tween-80
[5] = dose: 100.0 mg/kg/injection, schedule: Q04DX003 (ip), vehicle: other
[6] = dose: 50.0 mg/kg/injection, schedule: Q01DX009 (ip), vehicle: Klucel (hydroxypropylcellulose) (HPC)
[7] = dose: 100.0 mg/kg/injection, schedule: Q01DX009 (ip), vehicle: Klucel (hydroxypropylcellulose) (HPC)

Measured: T/C

N#CC(C#N)=Cc1ccc([N+](=O)[O-])o1
inactive: dose: 1.56 mg/kg/injection, schedule: Q04DX003 (ip), vehicle: saline 103 % of control | dose: 3.12 mg/kg/injection, schedule: Q01DX009 (ip), vehicle: Klucel (hydroxypropylcellulose) (HPC) 103 % of control | dose: 3.12 mg/kg/injection, schedule: Q04DX003 (ip), vehicle: saline 92 % of control | dose: 6.25 mg/kg/injection, schedule: Q01DX009 (ip), vehicle: Klucel (hydroxypropylcellulose) (HPC) 104 % of control | dose: 6.25 mg/kg/injection, schedule: Q04DX003 (ip), vehicle: saline 103 % of control

O=C(CCCN1CC=C(N2CCc3ccccc32)CC1)c1ccc(F)cc1
inactive: [1] 102 % of control | [2] 102 % of control

CC(C)(O)/C=C/C(=O)[C@](C)(O)[C@H]1[C@H](O)C[C@@]2(C)[C@@H]3CC=C4[C@@H](C=C(O)C(=O)C4(C)C)[C@]3(C)C(=O)C[C@]12C
inactive: dose: 100.0 micrograms/kg/injection, schedule: Q01DX001 (sc), vehicle: steriod suspending solution 104 % of control | dose: 200.0 micrograms/kg/injection, schedule: Q01DX001 (sc), vehicle: steriod suspending solution 102 % of control | dose: 400.0 micrograms/kg/injection, schedule: Q01DX001 (sc), vehicle: steriod suspending solution 104 % of control | dose: 800.0 micrograms/kg/injection, schedule: Q01DX001 (sc), vehicle: steriod suspending solution 96 % of control

O=S(=O)(C/C=C/COc1ccccc1)c1ccc2ccccc2c1
inactive: dose: 75.0 mg/kg/injection, schedule: Q01DX001 (ip), vehicle: Klucel (hydroxypropylcellulose) (HPC) 104 % of control | dose: 75.0 mg/kg/injection, schedule: Q01DX009 (ip), vehicle: Klucel (hydroxypropylcellulose) (HPC) 102 % of control | dose: 150.0 mg/kg/injection, schedule: Q01DX001 (ip), vehicle: Klucel (hydroxypropylcellulose) (HPC) 94 % of control | dose: 150.0 mg/kg/injection, schedule: Q01DX009 (ip), vehicle: Klucel (hydroxypropylcellulose) (HPC) 96 % of control | dose: 300.0 mg/kg/injection, schedule: Q01DX001 (ip), vehicle: Klucel (hydroxypropylcellulose) (HPC) 113 % of control | dose: 300.0 mg/kg/injection, schedule: Q01DX009 (ip), vehicle: Klucel (hydroxypropylcellulose) (HPC) 98 % of control

CN(C)C1=CC(=O)C(N(C)C)=CC1=O
inactive: dose: 100.0 mg/kg/injection, schedule: Q01DX001 (ip), vehicle: Klucel (hydroxypropylcellulose) (HPC) 110 % of control | dose: 200.0 mg/kg/injection, schedule: Q01DX001 (ip), vehicle: Klucel (hydroxypropylcellulose) (HPC) 112 % of control | dose: 400.0 mg/kg/injection, schedule: Q01DX001 (ip), vehicle: Klucel (hydroxypropylcellulose) (HPC) 105 % of control

O=C(Nc1ccc(C(=O)O)c(O)c1)c1ccccc1
inactive: dose: 100.0 mg/kg/injection, schedule: Q01DX001 (ip), vehicle: acetone 96 % of control | dose: 100.0 mg/kg/injection, schedule: Q04DX003 (ip), vehicle: saline sonified 98 % of control | dose: 200.0 mg/kg/injection, schedule: Q01DX001 (ip), vehicle: acetone 97 % of control | dose: 200.0 mg/kg/injection, schedule: Q04DX003 (ip), vehicle: saline sonified 101 % of control | dose: 400.0 mg/kg/injection, schedule: Q01DX001 (ip), vehicle: acetone 97 % of control | dose: 400.0 mg/kg/injection, schedule: Q04DX003 (ip), vehicle: saline sonified 101 % of control

O=C(NCCCl)Nc1ccc2c3c1CCCC3CC2 (stereo not drawn)
inactive: dose: 50.0 mg/kg/injection, schedule: Q04DX003 (ip), vehicle: Klucel (hydroxypropylcellulose) (HPC) 106 % of control | [3] 107 % of control | dose: 200.0 mg/kg/injection, schedule: Q04DX003 (ip), vehicle: Klucel (hydroxypropylcellulose) (HPC) 102 % of control

COCOc1ccc(-c2ccc(O)cc2)cc1
inactive: [1] 91 % of control | [2] 91 % of control | [4] 94 % of control

Clc1ccc(Cl)c2c(Br)cncc12
inactive: dose: 100.0 mg/kg/injection, schedule: Q01DX001 (ip), vehicle: other 98 % of control | dose: 200.0 mg/kg/injection, schedule: Q01DX001 (ip), vehicle: other 98 % of control | dose: 400.0 mg/kg/injection, schedule: Q01DX001 (ip), vehicle: other 93 % of control

Cc1cc(N)no1
inactive: dose: 100.0 mg/kg/injection, schedule: Q01DX009 (ip), vehicle: saline 100 % of control | dose: 100.0 mg/kg/injection, schedule: Q04DX003 (ip), vehicle: saline 108 % of control | dose: 200.0 mg/kg/injection, schedule: Q01DX009 (ip), vehicle: saline 104 % of control | dose: 200.0 mg/kg/injection, schedule: Q04DX003 (ip), vehicle: saline 106 % of control | dose: 400.0 mg/kg/injection, schedule: Q01DX009 (ip), vehicle: saline 104 % of control | dose: 400.0 mg/kg/injection, schedule: Q04DX003 (ip), vehicle: saline 108 % of control

CCCCC(CC)CCC(O)CC (stereo not drawn)
inactive: dose: 100.0 mg/kg/injection, schedule: Q01DX009 (ip), vehicle: saline with Tween-80 98 % of control | [1] 98 % of control | dose: 200.0 mg/kg/injection, schedule: Q01DX009 (ip), vehicle: saline with Tween-80 101 % of control | [2] 95 % of control | dose: 400.0 mg/kg/injection, schedule: Q01DX009 (ip), vehicle: saline with Tween-80 97 % of control | [4] 98 % of control

CC(=O)Nc1ccccc1SC(C)=O
inactive: [5] 88 % of control

CN(C)c1ccc2c(c1)C(=P(c1ccccc1)(c1ccccc1)c1ccccc1)c1ccccc1-2
inactive: dose: 63.0 mg/kg/injection, schedule: Q01DX015 (ip), vehicle: carboxymethylcellulose (CMC) 103 % of control | dose: 100.0 mg/kg/injection, schedule: Q01DX001 (ip), vehicle: carboxymethylcellulose (CMC) 97 % of control | dose: 125.0 mg/kg/injection, schedule: Q01DX015 (ip), vehicle: carboxymethylcellulose (CMC) 94 % of control | dose: 200.0 mg/kg/injection, schedule: Q01DX001 (ip), vehicle: carboxymethylcellulose (CMC) 101 % of control | dose: 250.0 mg/kg/injection, schedule: Q01DX015 (ip), vehicle: carboxymethylcellulose (CMC) 100 % of control | dose: 400.0 mg/kg/injection, schedule: Q01DX001 (ip), vehicle: carboxymethylcellulose (CMC) 90 % of control | dose: 500.0 mg/kg/injection, schedule: Q01DX015 (ip), vehicle: carboxymethylcellulose (CMC) 89 % of control

O=S1(=O)C(Cl)=C(Cl)C2C3CC(C(Cl)C3Cl)C21 (stereo not drawn)
inactive: dose: 50.0 mg/kg/injection, schedule: Q01DX009 (ip), vehicle: acetone 95 % of control | dose: 100.0 mg/kg/injection, schedule: Q01DX009 (ip), vehicle: acetone 93 % of control | dose: 100.0 mg/kg/injection, schedule: Q04DX003 (ip), vehicle: acetone 92 % of control | dose: 200.0 mg/kg/injection, schedule: Q01DX009 (ip), vehicle: acetone 98 % of control | dose: 200.0 mg/kg/injection, schedule: Q04DX003 (ip), vehicle: acetone 101 % of control | dose: 400.0 mg/kg/injection, schedule: Q04DX003 (ip), vehicle: acetone 92 % of control

Cc1ccc(N2CCOC2=O)cc1N1CCOC1=O
inactive: dose: 25.0 mg/kg/injection, schedule: Q04DX003 (ip), vehicle: other 97 % of control | dose: 50.0 mg/kg/injection, schedule: Q04DX003 (ip), vehicle: other 104 % of control | [5] 103 % of control | [1] 94 % of control

CC1=CC(c2ccccc2O)C(=C(C)C)CC1 (stereo not drawn)
inactive: [6] 96 % of control | [7] 93 % of control | dose: 200.0 mg/kg/injection, schedule: Q01DX009 (ip), vehicle: Klucel (hydroxypropylcellulose) (HPC) 89 % of control

S=C(NCc1cccc(Cl)c1)Nc1ccccc1
inactive: dose: 25.0 mg/kg/injection, schedule: Q01DX009 (ip), vehicle: Klucel (hydroxypropylcellulose) (HPC) 98 % of control | [6] 106 % of control | [7] 93 % of control

CCCCCCCCCCCCNC(=O)CC(O)(CC(=O)O)C(=O)O (stereo not drawn)
inactive: [3] 96 % of control

C=CCN(CC=C)P(N(CC=C)CC=C)N(CC=C)CC=C
inactive: dose: 75.0 mg/kg/injection, schedule: Q01DX009 (ip), vehicle: saline 98 % of control | dose: 150.0 mg/kg/injection, schedule: Q01DX009 (ip), vehicle: saline 96 % of control

S=C([S][Sb]([c]1ccccc1)[c]1ccccc1)N(c1ccccc1)c1ccccc1
inactive: dose: 5.0 mg/kg/injection, schedule: Q01DX001 (ip), vehicle: other 102 % of control | dose: 10.0 mg/kg/injection, schedule: Q01DX001 (ip), vehicle: other 102 % of control | dose: 20.0 mg/kg/injection, schedule: Q01DX001 (ip), vehicle: other 98 % of control | dose: 40.0 mg/kg/injection, schedule: Q01DX001 (ip), vehicle: other 107 % of control
